Measured values from the OPERA property sets (Mansouri et al. 2018).

Details: not given
In the case of `COC(=O)[C@@H]1C2CCC(C[C@@H]1OC(=O)c1ccccc1)N2C` (stereo partly specified), the log10 vapour pressure (mmHg) is reported as -6.72 and the melting point is reported as 98 °C. In the case of `Cc1c(O)cccc1O`, the boiling point is reported as 264 °C, the melting point is reported as 120 °C and the ready biodegradability is reported as “not readily biodegradable”. `COC(=O)c1ccc2ccccc2c1` gave a boiling point of 290 °C and a melting point of 77 °C. Molecule `COc1ccc(CO)cc1O` has a melting point of 136 °C. With `O=Cc1ccc2ccccc2c1` the melting point was 62 °C. With `CN(C)C1CCCCC1` the boiling point was 160 °C and the log10 Henry constant (atm·m³/mol) was -4.63. Molecule `COc1ccc(C(=O)OC(=O)c2ccc(OC)cc2)cc1` has a melting point of 94.5 °C. `CC1COc2ccccc2N1C(=O)C(Cl)Cl` (stereo unspecified) showed a log10 vapour pressure (mmHg) of -5.35 and a melting point of 108 °C. For `O=C(NO)c1ccccc1O`, the melting point was 168 °C. With `CCC(C)CCC=C(C)C` (stereo unspecified) the boiling point was 163 °C. `O=[N+]([O-])c1cncn1CCN1CCOCC1` gave a melting point of 110 °C. Work on `CCOP(=O)(Sc1ccccc1)Sc1ccccc1` yielded a log10 vapour pressure (mmHg) of -6.57. `CO[Si](C)(C)OC` gave a boiling point of 82 °C. For `Clc1ccc2c(Cl)c(Cl)cc(Cl)c2c1`, the log10 Koa was 8.08. In the case of `O=NN(CCO)CCO`, the ready biodegradability is reported as “readily biodegradable”. In the case of `CC1CCCC(=O)C1` (stereo unspecified), the boiling point is reported as 170 °C and the log10 vapour pressure (mmHg) is reported as 0.176. Molecule `CCCCCCCCCCCC(=O)OCc1ccccc1` has a melting point of 8.5 °C. With `O=C(O)CCC(=O)OOC(=O)CCC(=O)O` the melting point was 127 °C. `c1ccc2c(c1)CCc1ccccc1N2C1CN2CCC1CC2` (stereo unspecified) showed a melting point of 150 °C. In the case of `O=C(O)CF`, the boiling point is reported as 168 °C, the log10 Henry constant (atm·m³/mol) is reported as -7.91 and the melting point is reported as 35.2 °C. `C=CCC[C@@H](C)CC` showed a boiling point of 113 °C. `CC(C)=CCCC(C)=CC(=O)O` showed a boiling point of 250 °C. Work on `CCOc1ccc(NC(=O)OC(C)C)cc1OCC` yielded a log10 vapour pressure (mmHg) of -4.2 and a melting point of 100 °C. `C=C[N+](=O)[O-]` gave a boiling point of 98.5 °C and a melting point of -55.5 °C. `O=[N+]([O-])c1ccccc1C(F)(F)F` gave a boiling point of 217 °C and a melting point of 32.5 °C. `CCCCCCCCCCCCCCCCCCCl` showed a boiling point of 348 °C, a log10 vapour pressure (mmHg) of -4.77 and a melting point of 28.6 °C. `CC(=O)Nc1ccc(C)cc1` gave a boiling point of 307 °C and a melting point of 152 °C. Molecule `COc1ccc(O)c([N+](=O)[O-])c1` has a log10 Henry constant (atm·m³/mol) of -5.73 and a melting point of 79 °C. In the case of `CC(C)(C)CC(C)(C)c1ccc(OCCOCC[N+](C)(C)Cc2ccccc2)cc1`, the ready biodegradability is reported as “not readily biodegradable”. `Clc1cc2c(cc1Cl)Oc1c(Cl)c(Cl)c(Cl)c(Cl)c1O2` gave a log10 vapour pressure (mmHg) of -10.4 and a melting point of 273 °C. For `CC[N+](CC)(CCNC(=O)C(=O)NCC[N+](CC)(CC)Cc1ccccc1Cl)Cc1ccccc1Cl.[Cl-].[Cl-]`, the melting point was 198 °C. For `CCNS(=O)(=O)C(F)(F)C(F)(F)C(F)(F)C(F)(F)C(F)(F)C(F)(F)C(F)(F)C(F)(F)F`, the boiling point was 196 °C, the log10 vapour pressure (mmHg) was -6.37 and the melting point was 96 °C. With `CCO[Si](OCC)(OCC)OCC` the boiling point was 169 °C, the log10 vapour pressure (mmHg) was 0.275 and the melting point was -82.5 °C. `C=CCOCCO` gave a boiling point of 158 °C. Molecule `C[SiH](Cl)Cl` has a boiling point of 41 °C, a log10 vapour pressure (mmHg) of 2.63 and a melting point of -93 °C. `CCc1cc(CC)cc(CC)c1` showed a boiling point of 216 °C and a melting point of -66.5 °C. For `CC(CO)CO`, the boiling point was 195 °C, the log10 vapour pressure (mmHg) was -1.68 and the melting point was -91 °C. Work on `CCOC(=O)C(C)Oc1ccc(Oc2cnc3cc(Cl)ccc3n2)cc1` (stereo unspecified) yielded a log10 Koc (L/kg) of 2.71, a log10 vapour pressure (mmHg) of -8.19 and a melting point of 84.2 °C. In the case of `CCC(C)C(CC)C(C)C` (stereo unspecified), the boiling point is reported as 162 °C. For `Cc1ccc(Cl)cc1[N+](=O)[O-]`, the boiling point was 242 °C and the melting point was 38 °C. `CC(=O)Nc1ccccc1` showed a boiling point of 304 °C, a log10 Koc (L/kg) of 1.43 and a log10 vapour pressure (mmHg) of -3.7. For the same molecule, the melting point was 114 °C and the ready biodegradability was “readily biodegradable”. In the case of `O=c1c(O)c(-c2ccc(O)c(O)c2)oc2cc(O)ccc12`, the melting point is reported as 330 °C. With `O=C1Nc2ccc(Cl)cc2C(c2ccccc2Cl)=NC1O` (stereo unspecified) the melting point was 167 °C. Molecule `CC(O)(c1ccc(Cl)cc1)c1ccc(Cl)cc1` has a melting point of 70 °C. `CCOC(=O)C(Cl)(Cl)Cl` showed a boiling point of 168 °C and a log10 vapour pressure (mmHg) of 0.581. Molecule `COCCOC(=O)c1ccccc1C(=O)OCCOC` has a boiling point of 340 °C and a melting point of -45 °C. Work on `CC=C1CCCCC1` yielded a boiling point of 136 °C. Molecule `CCCCC=CC(=O)O` has a boiling point of 226 °C and a melting point of -19 °C. `CC/C=C\CCCC` showed a boiling point of 123 °C and a melting point of -118 °C. In the case of `Nc1ccc2ccc3cccc4ccc1c2c34`, the melting point is reported as 116 °C. In the case of `CCC(C)=CCl`, the boiling point is reported as 96.5 °C. With `C=COCC(C)C` the boiling point was 83 °C, the log10 vapour pressure (mmHg) was 1.77 and the melting point was -112 °C. Molecule `CCCCCCCCCCCC(=O)c1ccccc1` has a melting point of 47 °C. In the case of `CNC(=O)Oc1ccc2c(c1)[C@]1(C)CCN(C)OC1N2C` (stereo partly specified), the melting point is reported as 129 °C. In the case of `CC(=O)Cc1ccco1`, the boiling point is reported as 180 °C and the melting point is reported as 29 °C. With `O/N=C\c1cc[n+](COC[n+]2ccc(/C=N\O)cc2)cc1.[Cl-].[Cl-]` the melting point was 220 °C. In the case of `O=C(O)COc1nc(Cl)c(Cl)cc1Cl`, the log10 Koc (L/kg) is reported as 1.67, the log10 vapour pressure (mmHg) is reported as -5.9 and the melting point is reported as 149 °C. In the case of `CC(C)(C)c1ccc(C(C)(C)C)cc1`, the boiling point is reported as 238 °C and the melting point is reported as 79.5 °C. Work on `COS(=O)(=O)[O-].C[N+]1(C)CCN(CC(O)(c2ccccc2)C2CCCCC2)CC1` (stereo unspecified) yielded a melting point of 205 °C. In the case of `CN(c1c(Br)cc(Br)cc1Br)c1c([N+](=O)[O-])cc([N+](=O)[O-])cc1C(F)(F)F`, the log10 vapour pressure (mmHg) is reported as -7.01 and the melting point is reported as 150 °C. For `CC(C)COc1ccccc1`, the boiling point was 198 °C. With `O=C=Nc1ccc(Cl)cc1` the boiling point was 204 °C, the log10 vapour pressure (mmHg) was -0.712 and the melting point was 30 °C. With `O=C1C(=O)c2ccccc2C(Cl)=C1Cl` the melting point was 184 °C. Molecule `OC[C@@H]1CCCCN1` has a melting point of 69 °C. In the case of `COc1cc(OC)c(C(=O)O)cc1OC`, the boiling point is reported as 300 °C and the melting point is reported as 145 °C. For `C1CCCCCCC1`, the boiling point was 149 °C, the log10 vapour pressure (mmHg) was 0.741 and the melting point was 14.8 °C. With `CC(CN(C)C)CN1c2ccccc2CCc2ccccc21` (stereo unspecified) the melting point was 45 °C. Work on `Cc1ccc(N=Nc2ccccc2)cc1` yielded a boiling point of 312 °C and a melting point of 71.5 °C. `Cc1c(Cl)cc(Cl)c(Cl)c1Cl` showed a boiling point of 276 °C and a melting point of 94 °C. `OCCCCCCCCCCCCCCO` showed a melting point of 85.8 °C. `O=c1[nH]c(=O)n([C@H]2C[C@H](O)[C@@H](CO)O2)cc1C(F)(F)F` gave a melting point of 188 °C. `CC1(O)CCCC1` showed a boiling point of 136 °C and a melting point of 36 °C. For `CCSC(C)C`, the boiling point was 108 °C and the melting point was -122 °C. For `FC(F)CC(F)(F)F`, the boiling point was 40 °C, the log10 vapour pressure (mmHg) was 3.05 and the melting point was -102 °C. In the case of `CCCC/C=C/CO`, the boiling point is reported as 178 °C. Work on `COc1c2ccoc2cc2oc(CO[C@@H]3O[C@H](CO)[C@@H](O)[C@H](O)[C@H]3O)cc(=O)c12` yielded a melting point of 179 °C. `Clc1ccc(Cl)c(Oc2ccccc2)c1` gave a log10 vapour pressure (mmHg) of -3. `Cc1cc2ccccc2o1` gave a boiling point of 198 °C and a log10 vapour pressure (mmHg) of -0.312. In the case of `O=C(O)c1ccc(NS(=O)(=O)Cc2ccccc2)cc1`, the melting point is reported as 230 °C. `Cc1cccc2ncccc12` showed a boiling point of 263 °C and a melting point of 19 °C. `CCOP(=S)(OCC)Oc1ccc(S(C)=O)cc1` (stereo unspecified) gave a log10 Koc (L/kg) of 2.52 and a log10 vapour pressure (mmHg) of -4.3. `O=C(O)C=Cc1ccco1` gave a melting point of 143 °C. Work on `Oc1ccc(C2CCCCC2)cc1Cl` yielded a melting point of 40.5 °C.

Same assay, conditions: fish
Molecule `CCOP(=O)(Sc1ccccc1)Sc1ccccc1` has a log10 BCF of 1.51 and a log10 biotransformation half-life (days) of -1.04. Work on `Clc1cc2c(cc1Cl)Oc1c(Cl)c(Cl)c(Cl)c(Cl)c1O2` yielded a log10 BCF of 4 and a log10 biotransformation half-life (days) of 1.27. For `Cc1ccc(Cl)cc1[N+](=O)[O-]`, the log10 BCF was 1.92.
